# Publication PMC3256212, “Mechanism and Function of Drosophila capa GPCR: A Desiccation Stress-Responsive Receptor with Functional Homology to Human NeuromedinU Receptor” (PLoS ONE, 2012)
# Peptide text beside a SMILES is read from it.
# Key:
# capaR (CG14575) = target: T1, capaR (CG14575) (Drosophila melanogaster, UniProt Q8ITC7); test: [Ca2+]i (aequorin) in capaR-transfected S2 cells; format: cell-based; conditions: capaR S2 cells; N = 3 (Fig. 3D); read-out: EC50, [Ca2+]i via capaR
# T1 construct: The ORF of capaR was amplified from whole fly cDNA as template; expressed in transfected cells; host or cells: Drosophila S2 cells (pMT/V5-His TOPO, CuSO4 induction)
# T1 sequence (Q8ITC7 1-477): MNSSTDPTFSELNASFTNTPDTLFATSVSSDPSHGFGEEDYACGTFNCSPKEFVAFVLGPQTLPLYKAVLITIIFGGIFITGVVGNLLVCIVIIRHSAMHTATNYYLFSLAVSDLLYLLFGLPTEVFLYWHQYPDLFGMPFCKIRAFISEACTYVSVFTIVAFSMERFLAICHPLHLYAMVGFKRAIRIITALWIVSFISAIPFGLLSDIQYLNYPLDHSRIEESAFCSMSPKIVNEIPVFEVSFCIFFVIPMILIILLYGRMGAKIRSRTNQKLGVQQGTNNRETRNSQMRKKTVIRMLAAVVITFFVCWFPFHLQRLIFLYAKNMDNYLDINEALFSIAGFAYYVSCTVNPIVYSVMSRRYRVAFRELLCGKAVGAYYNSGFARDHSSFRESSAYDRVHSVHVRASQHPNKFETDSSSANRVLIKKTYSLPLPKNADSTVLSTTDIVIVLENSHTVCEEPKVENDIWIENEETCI
# Source text: The ORF of capaR was amplified from whole fly cDNA as template using the primers 5′-[…]-3′ and 5′-[…]-3′ and cloned into pMT/V5-His TOPO vector (Invitrogen). The eYFP ORF was fused in-frame at the C-terminus of the capaR using KpnI and ApaI sites and the tagged construct was cloned into the pMT/V5-His TOPO vector.
# (§1) The capa peptides Drm-capa-1 (GANMGLYAFPRVamide), Drm-capa-2 (ASGLVAFPRVamide), Drm-PK-1 (TGPSASSGLWFGPRLamide), Drm-PK-2 (SVPFKPRLamide) and hugin gamma (hugg, pQLQSNGEPAYRVRTPRL-amide) were synthesised as C-terminally amidated peptides (Biomatik Corporation, Canada). Peptides were dissolved in distilled ACN/H2O to a concentration of 1 mM and then diluted to the required working concentration in Schneider's medium (Invitrogen Inc.). Human neuromedin U-25 was purchased from Sigma. Rabbit polyclonal antibody to porcine neuromedinU-8 was purchased from Progen biotechnik (Heidelberg, Germany). Rabbit capa precursor peptide used was described in [21] Rabbit anti-peptide antibody was raised against the capaR epitope (CQQGTNNRETRNSQM) by Genosphere Biotechnologies (Paris, France) and purified on a HiTrap NHS-activated HP column (Amersham Pharmacia Bio-tech; Buckinghamshire, UK) according to the manufacturer's instructions. Immunohistochemistry was carried out as described previously. Mouse anti-GFP primary antibody (Zymed) and the antiserum to neuromedinU-8 were all diluted 1∶1000 or, in the case of the pre-immune serum, the affinity-purified capaR antibody and the antiserum to the capa precursor peptide, 1∶500. Incubations in the primary antibodies were performed overnight. A FITC-conjugated affinity-purified goat anti-mouse antibody (Jackson Immunologicals) was used in a dilution of 1∶1,000 for visualization of the mouse monoclonal anti-GFP. A Texas red-conjugated affinity-purified goat anti-rabbit antibody (Jackson Immunologicals) was used at a dilution of 1∶1,000 for visualization of the rabbit capaR antiserum.
# (§2) Drosophila S2 cells, cultured under standard conditions were transiently transfected with the apoaequorin ORF [21] and a receptor ORF construct, and expression induced using CuSO4. Transfected S2 cells were harvested and incubated with 2.5 µM coelenterazine in the dark at RT for 1–2 h as previously described. 25,000 cells were then placed in 135 µl Schneider's medium supplemented with 10% FCS in a well of a white polystyrene 96-well plate (Berthold Technologies). Bioluminescence recordings were carried out using a Mithras LB940 automated 96-well plate reader (Berthold Technologies) and MikroWin software. 15 µl of each of different peptides were applied to final concentrations as required. At the end of each recording samples were disrupted by the addition of 100 µl lysis solution, and the [Ca^2+] concentrations calculated as previously described. For assays in Ca^2+-free medium, transfected cells were collected and pelleted after incubation with coelenterazine. Cell pellets were re-suspended in Ca^2+-free Schneider's medium (Invitrogen Inc.) without FCS and collected by centrifugation. The washing and pelleting procedure was repeated once more. Experiments were then carried out on 25,000 cells per sample as above. To verify whether the observed calcium signal was linked to phospholipase C (PLC) activation, S2-capaR cells were preincubated with the PLC inhibitor U73122 at concentration of 10^−3 M to 10^−8 M for 10 min. Luminometry experiments were carried out on live, intact tubules expressing a targeted transgene for cytosolic-targeted apoaequorin in either principal or stellate cells as previously described, [22]. For in vivo tubule experiments, flies of the following genotypes were used: c42aeq, capaR-GAL4, UAS-capaR, UAS-capaR RNAi, UAS-NMUR 2 and the resulting progeny from GAL4>UAS crosses.
# NMU receptor 2 (NMUR 2) = target: T2, NMU receptor 2 (NMUR 2) (Homo sapiens, UniProt Q9GZQ4); test: [Ca2+]i (aequorin) in NMUR 2-transfected S2 cells; format: cell-based; conditions: NMUR 2- and apoaequorin-co-transfected S2 cells; N = 3 (Fig. 3D); read-out: EC50, [Ca2+]i via NMUR 2
# T2 construct: expressed in transfected cells; host or cells: Drosophila S2 cells (pMT/V5-His TOPO)
# Experimental: as §1
# as §2, with “Experiments were then carried out on 25,000 cells per sample as above. To verify whether the observed calcium signal was linked to phospholipase C (PLC) activation, S2-capaR cells were preincubated with the PLC inhibitor U73122 at concentration of 10^−3 M to 10^−8 M for 10 min. Luminometry experiments were carried out on live, intact tubules expressing a targeted transgene for cytosolic-targeted apoaequorin in either principal or stellate cells as previously described, [22]. For in vivo tubule experiments, flies of the following genotypes were used: c42aeq, capaR-GAL4, UAS-capaR, UAS-capaR RNAi, UAS-NMUR 2 and the resulting progeny from GAL4>UAS crosses.” left out
# T2 sequence (Q9GZQ4 whole entry): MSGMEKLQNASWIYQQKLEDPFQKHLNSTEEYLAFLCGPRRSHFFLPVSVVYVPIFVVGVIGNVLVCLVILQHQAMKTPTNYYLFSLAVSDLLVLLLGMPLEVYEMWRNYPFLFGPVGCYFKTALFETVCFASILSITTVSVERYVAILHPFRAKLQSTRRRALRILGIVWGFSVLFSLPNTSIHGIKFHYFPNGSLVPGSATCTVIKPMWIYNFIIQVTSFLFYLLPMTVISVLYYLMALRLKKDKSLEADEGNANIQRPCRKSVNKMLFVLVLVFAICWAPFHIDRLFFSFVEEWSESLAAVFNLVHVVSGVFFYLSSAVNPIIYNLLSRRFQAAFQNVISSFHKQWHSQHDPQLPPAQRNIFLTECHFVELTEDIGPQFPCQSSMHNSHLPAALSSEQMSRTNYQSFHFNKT
smiles,measurement,setting,value
"CC(C)C[C@H](NC(=O)[C@H](Cc1ccccc1)NC(=O)[C@H](Cc1ccc(O)cc1)NC(=O)CNC(=O)[C@H](CCCNC(=N)N)NC(=O)[C@H](CO)NC(=O)[C@H](CCC(N)=O)NC(=O)[C@H](CO)NC(=O)[C@H](C)NC(=O)[C@H](Cc1ccccc1)NC(=O)[C@@H]1CCCN1C(=O)[C@H](CO)NC(=O)[C@H](CCC(N)=O)NC(=O)[C@H](Cc1ccccc1)NC(=O)[C@H](CCC(=O)O)NC(=O)[C@H](CCC(=O)O)NC(=O)[C@H](CC(=O)O)NC(=O)[C@@H](NC(=O)[C@H](CCCNC(=N)N)NC(=O)[C@@H](N)Cc1ccccc1)C(C)C)C(=O)N[C@@H](Cc1ccccc1)C(=O)N[C@@H](CCCNC(=N)N)C(=O)N1CCC[C@H]1C(=O)N[C@@H](CCCNC(=N)N)C(=O)N[C@@H](CC(N)=O)C(N)=O [NMU-25, reference compound] (H-FRVDEEFQSPFASQSRGYFLFRPRN-NH2)",EC50,capaR (CG14575),21.8 nM
same,EC50,NMU receptor 2 (NMUR 2),0.91 nM
